Measurements: ChEMBL document CHEMBL1148979, “Thiobutacin, a novel antifungal and antioomycete antibiotic from Lechevalieria aerocolonigenes” (2004)
In brackets after ≈: the same amount, converted by molar mass.

Columns and labels:
Type in all cases: functional
Phytophthora capsici = assay: Antioomycete activity against Phytophthora capsici by microtiter broth dilution assay
Botrytis cinerea = assay: Antifungal activity against Botrytis cinerea
Saccharomyces cerevisiae = assay: Antimicrobial activity against Saccharomyces cerevisiae

Compound | MIC (Phytophthora capsici) [µg/mL] | MIC (Botrytis cinerea) [µg/mL] | MIC (Saccharomyces cerevisiae) [µg/mL]
COCC(=O)N(c1c(C)cccc1C)C(C)C(=O)OC (stereo not drawn) [METALAXYL] | 30 (≈ 107 µM) |  | 
Clc1ccc(COC(Cn2ccnc2)c2ccc(Cl)cc2Cl)c(Cl)c1 (stereo not drawn) [MICONAZOLE] |  | 10 (≈ 24 µM) | 5 (≈ 12 µM)
CSC(CC(=O)c1ccccc1N)C(=O)O (stereo not drawn) [THIOBUTACIN] | 10 (≈ 41.8 µM) | 50 (≈ 209 µM) | 30 (≈ 125 µM)
NYSTATIN |  | 3 | 7
